Results: patent US20240350488A1, “METHODS OF TREATING SWI/SNF DEREGULATED CANCERS” (Fred Hutchinson Cancer Center, priority 2023, published 2024)

Columns and labels:
PDX1 (ARID1A low) = assay: Pre-clinical trial of patient derived xenograft treated with HHT; format: in vivo, mouse; conditions: ARID1A low model; HHT 0.7 mg/kg twice daily by oral gavage
Excerpt: (§1) Arid1a^LoxP/LoxP (Jackson Laboratory), ROSA-LSL-Yfp^KI/KI (Jackson Laboratory), and UBC-Cre^ERT2 (Jackson Laboratory). eEF2K^−/− animals were kindly provided by Alexey G. Ryazanov (Rutgers University). UBC-Cre^ERT2;ROSA-LSL-Yfp^KI/KI;Arid1a^LoxP/LoxP animals (mixed background) were bred to Eef2k^−/− animals (C57BL/6) for one generation to produce progeny heterozygous at all loci (ROSA-LSL-Yfp^KI/+;Arid1a^LoxP/+; eEF2K^+/−) with or without UBC-Cre^ERT2. Heterozygous animals without UBC-Cre^ERT2 were backcrossed once more to ROSA-LSL-Yfp^KI/KI;Arid1a^LoxP/LoxP animals to reintroduce homozygosity at the ARID1A and ROSA-LSL-Yfp, while maintaining heterozygosity at the Eef2k locus (ROSA-LSL-Yfp^KI/KI; Arid1a^LoxP/LoxP; Eef2K^+/−; with and without UBC-Cre^ERT2). […] For survival studies, the body weight of the mouse was recorded and monitored every two days for the duration of the survival trial.
(§2) Tumor pieces (1×1×1 mm) were implanted into the flank of 4-6 weeks old NOD-SCID γ IL-2 mice. Xenografts were measured every 2 days and tumor volume was calculated using the formula (L×W×W)/2, where L is the length of the tumor and W its width. […]

PDX2 (ARID1A medium) = assay: as above; format: in vivo, mouse; conditions: ARID1A medium model; HHT 0.7 mg/kg twice daily by oral gavage
Excerpt: as §1, §2

COC(=O)C[C@](O)(CCCC(C)(C)O)C(=O)O[C@@H]1C(OC)=C[C@]23CCCN2CCc2cc4c(cc2[C@H]13)OCO4 [HHT, homoharringtonine]
decrease in tumor growth (PDX1 (ARID1A low)): 59.3% | decrease in tumor growth (PDX2 (ARID1A medium)): 35.9%
